Reference: PubChem BioAssay (NCI)
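Tested at 5 concentrations; 48 h exposure; 96-well plates; endpoints linearly interpolated, else capped at highest concentration. Abbreviation: GI50, concentration required for 50% inhibition of growth. TGI denotes the concentration required for complete inhibition of growth.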

Assays:
Assay in all cases: DTP human tumour cell line panel, 48 h
[1] = tested on: CAKI-1 renal
[2] = tested on: 786-0 renal
[3] = tested on: T-47D breast
[4] = tested on: NCI/ADR-RES ovarian
[5] = tested on: OVCAR-4 ovarian
[6] = tested on: MALME-3M melanoma
[7] = tested on: HOP-92 NSCLC
[8] = tested on: NCI-H23 lung
[9] = tested on: SK-MEL-2 melanoma
[10] = tested on: NCI-H522 lung
[11] = tested on: SK-MEL-5 melanoma
[12] = tested on: MCF7 breast
[13] = tested on: HS 578T breast
[14] = tested on: A549 NSCLC
[15] = tested on: SW-620 colon
[16] = tested on: RPMI-8226 leukemia
[17] = tested on: RXF 393 renal
[18] = tested on: K-562 leukemia
[19] = tested on: LOX IMVI melanoma
[20] = tested on: HL-60(TB) leukemia
[21] = tested on: SF-268 CNS
[22] = tested on: SNB-19 CNS
[23] = tested on: IGROV1 ovarian
[24] = tested on: CCRF-CEM leukemia
[25] = tested on: HCT-15 colon
[26] = tested on: SK-MEL-28 melanoma
[27] = tested on: BT-549 breast
[28] = tested on: SNB-75 CNS
[29] = tested on: HOP-62 NSCLC
[30] = tested on: DU-145 prostate
[31] = tested on: A498 renal
[32] = tested on: SK-OV-3 ovarian
[33] = tested on: UACC-257 melanoma
[34] = tested on: UO-31 renal
[35] = tested on: MDA-MB-231 breast
[36] = tested on: HT29 colon
[37] = tested on: SN12C renal
[38] = tested on: KM12 colon
[39] = tested on: HCT-116 colon
[40] = tested on: OVCAR-8 ovarian
[41] = tested on: OVCAR-5 ovarian
[42] = tested on: MOLT-4 leukemia
[43] = tested on: HCC-2998 colon
[44] = tested on: NCI-H226 lung
[45] = tested on: PC-3 prostate
[46] = tested on: COLO 205 colon
[47] = tested on: SR leukemia
[48] = tested on: U251 CNS
[49] = tested on: OVCAR-3 ovarian
[50] = tested on: SF-295 CNS
[51] = tested on: TK-10 renal
[52] = tested on: NCI-H460 lung
[53] = tested on: ACHN renal
[54] = tested on: MDA-MB-435
[55] = tested on: UACC-62 melanoma
[56] = tested on: SF-539 CNS
[57] = tested on: EKVX NSCLC

C#CCOc1cccc(-c2nc(N)nc(Nc3ccccc3SSc3ccccc3Nc3nc(N)nc(-c4cccc(OCC#C)c4)n3)n2)c1
GI50 [1]: 3.78 µM
TGI [1]: 14.2 µM
GI50 [2]: 21.2 µM
TGI [2]: > 33.3 µM
GI50 [3]: 3.29 µM
TGI [3]: > 33.3 µM
GI50 [4]: 1.89 µM
TGI [4]: 8.56 µM
GI50 [5]: 12.9 µM
TGI [5]: > 33.3 µM
GI50 [6]: > 33.3 µM
TGI [6]: > 33.3 µM
GI50 [7]: 7.77 µM
TGI [7]: > 33.3 µM
GI50 [8]: 1.95 µM
TGI [8]: 10.4 µM
GI50 [9]: 16.9 µM
TGI [9]: > 33.3 µM
GI50 [10]: 8.13 µM
TGI [10]: > 33.3 µM
GI50 [11]: 9.94 µM
TGI [11]: > 33.3 µM
GI50 [12]: 17.1 µM
TGI [12]: > 33.3 µM
GI50 [13]: 6.87 µM
TGI [13]: 31.7 µM
GI50 [14]: 1.1 µM
TGI [14]: 4.49 µM
GI50 [15]: 14.3 µM
TGI [15]: > 33.3 µM
GI50 [16]: 1.55 µM
TGI [16]: 17.1 µM
GI50 [17]: 33.1 µM
TGI [17]: > 33.3 µM
GI50 [18]: 8.03 µM
TGI [18]: > 33.3 µM
GI50 [19]: 0.746 µM
TGI [19]: 1.8 µM
GI50 [20]: 9.92 µM
TGI [20]: > 33.3 µM
GI50 [21]: 3.94 µM
TGI [21]: 12.1 µM
GI50 [22]: 7.37 µM
TGI [22]: > 33.3 µM
GI50 [23]: 1.73 µM
TGI [23]: 24.2 µM
GI50 [24]: 2.64 µM
TGI [24]: > 33.3 µM
GI50 [25]: 2.31 µM
TGI [25]: > 33.3 µM
GI50 [26]: > 33.3 µM
TGI [26]: > 33.3 µM
GI50 [27]: 8.52 µM
TGI [27]: > 33.3 µM
GI50 [28]: 8.99 µM
TGI [28]: 31.3 µM
GI50 [29]: 0.674 µM
TGI [29]: 1.58 µM
GI50 [30]: 10.6 µM
TGI [30]: > 33.3 µM
GI50 [31]: 6.58 µM
TGI [31]: > 33.3 µM
GI50 [32]: 13.6 µM
TGI [32]: > 33.3 µM
GI50 [33]: 29.7 µM
TGI [33]: > 33.3 µM
GI50 [34]: 1.51 µM
TGI [34]: 5.81 µM
GI50 [35]: 4.78 µM
TGI [35]: > 33.3 µM
GI50 [36]: > 33.3 µM
TGI [36]: > 33.3 µM
GI50 [37]: 0.971 µM
TGI [37]: 5.37 µM
GI50 [38]: 1.69 µM
TGI [38]: 11.1 µM
GI50 [39]: 2 µM
TGI [39]: > 33.3 µM
GI50 [40]: 2.42 µM
TGI [40]: 12.9 µM
GI50 [41]: 7.32 µM
TGI [41]: 28.2 µM
GI50 [42]: 4.45 µM
TGI [42]: > 33.3 µM
GI50 [43]: > 33.3 µM
TGI [43]: > 33.3 µM
GI50 [44]: 4.52 µM
TGI [44]: > 33.3 µM
GI50 [45]: 1.61 µM
TGI [45]: > 33.3 µM
GI50 [46]: > 33.3 µM
TGI [46]: > 33.3 µM
GI50 [47]: 1.41 µM
TGI [47]: > 33.3 µM
GI50 [48]: 1.08 µM
TGI [48]: 3.82 µM
GI50 [49]: 18.2 µM
TGI [49]: > 33.3 µM
GI50 [50]: 0.751 µM
TGI [50]: 1.93 µM
GI50 [51]: 13.1 µM
TGI [51]: > 33.3 µM
GI50 [52]: 1.72 µM
TGI [52]: 8.37 µM
GI50 [53]: 1.19 µM
TGI [53]: 4.35 µM
GI50 [54]: 14.4 µM
TGI [54]: > 33.3 µM
GI50 [55]: 5.43 µM
TGI [55]: 13.3 µM
GI50 [56]: 11.1 µM
TGI [56]: > 33.3 µM
GI50 [57]: 7.19 µM
TGI [57]: > 33.3 µM
